Values of other authors, collected in patent US9526741B2, “Chemosensory receptor ligand-based therapies” (NaZura BioHealth, Inc., priority 2009, dated 2016).

Tested on: GLP-1
Details: humans

OCCN1C[C@H](O)[C@@H](O)[C@H](O)[C@H]1CO [miglitol]
postprandial GLP-1 levels: increase
